Data published in the supplement of paper PMC11451515.

System: NOMO1
Test: cell viability relative to DMSO control; higher = less cytotoxic
Conditions: 48 h
In short: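 Viability values are per-plate percentages of DMSO wells, with background from cell-free wells. Library compounds in DMSO were pin-dosed, in an 11-point threefold series from 47 μM to 0.79 nM, onto NOMO1 or SEM (500 cells/well) or P12-Ichikawa (1000 cells/well) leukemia cells in 1536-well plates (5 μl). Those cells had been adapted for at least four passages in each medium, and CellTiter-Glo One luminescence was read after 48 h at 37°C.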

[1] = RPMI 5 mM glucose + 10% FBS, 0.000781 µM
[2] = RPMI 5 mM glucose + 10% FBS, 0.00234 µM
[3] = RPMI 5 mM glucose + 10% FBS, 0.00702 µM
[4] = RPMI 5 mM glucose + 10% FBS, 0.0211 µM
[5] = RPMI 5 mM glucose + 10% FBS, 0.0632 µM
[6] = RPMI 5 mM glucose + 10% FBS, 0.19 µM
[7] = RPMI 5 mM glucose + 10% FBS, 0.569 µM
[8] = RPMI 5 mM glucose + 10% FBS, 1.71 µM
[9] = RPMI 5 mM glucose + 10% FBS, 5.12 µM
[10] = RPMI 5 mM glucose + 10% FBS, 15.4 µM
[11] = RPMI 5 mM glucose + 10% FBS, 46.1 µM
[12] = RPMI 5 mM glucose + 10% dialyzed FBS, 0.000781 µM
[13] = RPMI 5 mM glucose + 10% dialyzed FBS, 0.00234 µM
[14] = RPMI 5 mM glucose + 10% dialyzed FBS, 0.00702 µM
[15] = RPMI 5 mM glucose + 10% dialyzed FBS, 0.0211 µM
[16] = RPMI 5 mM glucose + 10% dialyzed FBS, 0.0632 µM
[17] = RPMI 5 mM glucose + 10% dialyzed FBS, 0.19 µM
[18] = RPMI 5 mM glucose + 10% dialyzed FBS, 0.569 µM
[19] = RPMI 5 mM glucose + 10% dialyzed FBS, 1.71 µM
[20] = RPMI 5 mM glucose + 10% dialyzed FBS, 5.12 µM
[21] = RPMI 5 mM glucose + 10% dialyzed FBS, 15.4 µM
[22] = RPMI 5 mM glucose + 10% dialyzed FBS, 46.1 µM
[23] = HPLM + 10% dialyzed FBS, 0.000781 µM
[24] = HPLM + 10% dialyzed FBS, 0.00234 µM
[25] = HPLM + 10% dialyzed FBS, 0.00702 µM
[26] = HPLM + 10% dialyzed FBS, 0.0211 µM
[27] = HPLM + 10% dialyzed FBS, 0.0632 µM
[28] = HPLM + 10% dialyzed FBS, 0.19 µM
[29] = HPLM + 10% dialyzed FBS, 0.569 µM
[30] = HPLM + 10% dialyzed FBS, 1.71 µM
[31] = HPLM + 10% dialyzed FBS, 5.12 µM
[32] = HPLM + 10% dialyzed FBS, 15.4 µM
[33] = HPLM + 10% dialyzed FBS, 46.1 µM

SMILES	cell viability [1] [%]	cell viability [2] [%]	cell viability [3] [%]	cell viability [4] [%]	cell viability [5] [%]	cell viability [6] [%]	cell viability [7] [%]	cell viability [8] [%]	cell viability [9] [%]	cell viability [10] [%]	cell viability [11] [%]	cell viability [12] [%]	cell viability [13] [%]	cell viability [14] [%]	cell viability [15] [%]	cell viability [16] [%]	cell viability [17] [%]	cell viability [18] [%]	cell viability [19] [%]	cell viability [20] [%]	cell viability [21] [%]	cell viability [22] [%]	cell viability [23] [%]	cell viability [24] [%]	cell viability [25] [%]	cell viability [26] [%]	cell viability [27] [%]	cell viability [28] [%]	cell viability [29] [%]	cell viability [30] [%]	cell viability [31] [%]	cell viability [32] [%]	cell viability [33] [%]
Cc1coc2c1C(=O)C(=O)c1c-2ccc2c(C)cccc12	126	113	125	110	112	128	118	114	89.4	103	91.2	116	111	111	113	117	108	106	130	97.7	105	106	–	–	–	–	–	–	–	–	–	–	–
CC(C)(C#N)c1cc(Cn2cncn2)cc(C(C)(C)C#N)c1	123	106	102	111	109	106	127	114	44.2	106	107	–	–	–	–	–	–	–	–	–	–	–	–	–	–	–	–	–	–	–	–	–	–
CCN(CC)CCCCNc1ncc2cc(-c3cc(OC)cc(OC)c3)c(NC(=O)NC(C)(C)C)nc2n1	–	–	–	–	–	–	–	–	–	–	–	–	–	–	–	–	–	–	–	–	–	–	122	136	125	113	111	108	94.8	86.8	104	83.8	33.2
O=C(Nc1cccc(C(F)(F)F)c1)Nc1cc([S+](=O)([O-])NC2CC2)ccc1-c1ccsc1	111	99.2	102	105	104	97.7	105	109	105	96	16.5	–	–	–	–	–	–	–	–	–	–	–	–	–	–	–	–	–	–	–	–	–	–
COc1ccc([C@@H]2CC(=O)c3c(O)cc(O[C@@H]4O[C@H](CO[C@@H]5O[C@@H](C)[C@H](O)[C@@H](O)[C@H]5O)[C@@H](O)[C@H](O)[C@H]4O)cc3O2)cc1O	120	106	107	114	121	118	117	123	120	119	118	98.8	106	115	113	110	96.6	115	125	115	101	101	107	117	122	128	116	123	125	118	115	108	103
O=C1NC(=O)/C(=C/c2ccc3nccc(-c4ccncc4)c3c2)S1	115	99.6	107	113	101	92.9	84.1	66.7	36.8	29.1	16	107	115	92	97.3	88	63.2	61	55.9	34.7	27.2	13.6	129	96.8	124	97.8	89.6	85.4	55.6	50.8	33.8	26	14.7
Clc1ccc(-c2nc3sccn3c2/C=N/OCc2ccc(Cl)c(Cl)c2)cc1	121	114	117	120	112	109	101	104	117	103	108	101	110	123	125	114	98	113	114	111	99.8	111	122	113	128	126	125	110	109	108	99.6	101	122
CC[C@H](NC1=C2N=C[NH]C2=NC=N1)C/3=N/C4=C(C(=CC=C4)F)C(=O)N3C5=CC=CC=C5	116	119	139	122	125	116	113	113	111	107	76.9	125	121	123	125	133	110	117	114	100	82.2	57	–	–	–	–	–	–	–	–	–	–	–
CCC[S+]([O-])c1ccc2[nH]c(NC(=O)OC)nc2c1 (configuration not stated)	88.2	96.6	94.2	103	101	89.9	101	82	93.8	71.2	15.5	94.5	91.3	94.7	87.4	84.9	88.8	81.7	76.4	81.2	58.4	19.4	102	81.8	100	106	98.5	109	95	79.5	93.5	72.2	18.7
C[C@@]12C(=O)OC(=O)[C@@]1(C)C1CCC2O1	98.4	90.8	86.6	87.1	103	89.9	95.3	81.6	79.9	8.16	6.61	110	96.1	101	99.7	106	106	88.6	89.8	64.9	7.15	5.77	111	109	107	116	115	123	114	101	70.4	12.6	6.53
